Reference: ChEMBL document CHEMBL1201862, “PubChem BioAssay data set” (2004)
The source made the active and inactive calls.

Tests used:
Format in all cases: functional
[1] = target: Tyrosine-protein kinase Lck (Homo sapiens, UniProt P06239);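 further: lck was assayed as one member of a kinase panel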
[2] = target: Cyclin-dependent kinase 7 (Homo sapiens, UniProt P50613);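 further: value comes from a kinome-wide kinase profiling panel in which CDK7 is one member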
[3] = target: Mitogen-activated protein kinase kinase kinase kinase 2 (Homo sapiens, UniProt Q12851);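 further: measured as one member of a kinome-wide kinase panel, with MAP4K2 as the panel entry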
[4] = target: Protein kinase C theta type (Homo sapiens, UniProt Q04759); assay: Navigating the Kinome. Panel member name: PRKCQ
[5] = target: Cyclin-dependent kinase 5 (Homo sapiens, UniProt Q00535);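 further: CDK5 measured as one member of a kinase profiling panel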
Sequence of Cyclin-dependent kinase 5 (Q00535 whole entry): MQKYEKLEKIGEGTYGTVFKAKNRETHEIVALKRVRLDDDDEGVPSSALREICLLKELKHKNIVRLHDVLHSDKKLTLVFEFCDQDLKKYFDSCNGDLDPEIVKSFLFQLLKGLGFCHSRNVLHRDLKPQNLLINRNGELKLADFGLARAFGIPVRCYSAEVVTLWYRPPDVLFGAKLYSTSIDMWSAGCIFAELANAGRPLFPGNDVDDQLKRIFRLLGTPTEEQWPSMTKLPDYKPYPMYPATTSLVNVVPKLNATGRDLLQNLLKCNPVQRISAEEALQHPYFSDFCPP

[6] = target: Macrophage colony-stimulating factor 1 receptor (Homo sapiens, UniProt P07333);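 further: value comes from the Navigating the Kinome screening panel, CSF1R member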
[7] = target: cAMP-dependent protein kinase catalytic subunit alpha (Homo sapiens, UniProt P17612)
[8] = target: Casein kinase I isoform alpha (Homo sapiens, UniProt P48729)
Sequence of Casein kinase I isoform alpha (P48729 whole entry, canonical isoform): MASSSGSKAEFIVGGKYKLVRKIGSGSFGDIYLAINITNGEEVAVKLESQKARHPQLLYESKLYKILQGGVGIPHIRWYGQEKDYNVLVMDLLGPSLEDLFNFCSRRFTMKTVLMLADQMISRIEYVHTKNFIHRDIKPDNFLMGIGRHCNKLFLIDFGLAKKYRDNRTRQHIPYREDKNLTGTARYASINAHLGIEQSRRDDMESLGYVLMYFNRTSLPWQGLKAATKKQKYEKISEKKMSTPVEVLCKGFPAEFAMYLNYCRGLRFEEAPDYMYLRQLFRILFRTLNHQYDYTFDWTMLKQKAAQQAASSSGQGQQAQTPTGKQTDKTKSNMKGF

[9] = target: Glycogen synthase kinase-3 beta (Homo sapiens, UniProt P49841);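 further: value comes from a broad kinome profiling panel, with GSK3B as the panel member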
[10] = target: T1, Aurora kinase A (Homo sapiens, UniProt O14965);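 further: value from the Navigating the Kinome kinase panel profiling, panel entry STK6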
T1 sequence (O14965 whole entry): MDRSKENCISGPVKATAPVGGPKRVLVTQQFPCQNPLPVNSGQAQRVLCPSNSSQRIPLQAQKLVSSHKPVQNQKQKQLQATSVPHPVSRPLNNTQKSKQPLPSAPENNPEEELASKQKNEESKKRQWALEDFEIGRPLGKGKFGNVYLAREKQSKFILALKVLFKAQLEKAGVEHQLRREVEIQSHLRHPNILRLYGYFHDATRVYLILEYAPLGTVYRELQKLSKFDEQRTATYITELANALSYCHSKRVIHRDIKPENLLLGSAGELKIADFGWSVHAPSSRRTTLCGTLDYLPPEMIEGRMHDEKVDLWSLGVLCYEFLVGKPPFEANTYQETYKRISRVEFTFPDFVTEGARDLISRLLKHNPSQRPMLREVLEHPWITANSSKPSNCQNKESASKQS

[11] = target: Activin receptor type-1 (Homo sapiens, UniProt Q04771); assay: Navigating the Kinome. Panel member name: ACVR1
Sequence of Activin receptor type-1 (Q04771 whole entry): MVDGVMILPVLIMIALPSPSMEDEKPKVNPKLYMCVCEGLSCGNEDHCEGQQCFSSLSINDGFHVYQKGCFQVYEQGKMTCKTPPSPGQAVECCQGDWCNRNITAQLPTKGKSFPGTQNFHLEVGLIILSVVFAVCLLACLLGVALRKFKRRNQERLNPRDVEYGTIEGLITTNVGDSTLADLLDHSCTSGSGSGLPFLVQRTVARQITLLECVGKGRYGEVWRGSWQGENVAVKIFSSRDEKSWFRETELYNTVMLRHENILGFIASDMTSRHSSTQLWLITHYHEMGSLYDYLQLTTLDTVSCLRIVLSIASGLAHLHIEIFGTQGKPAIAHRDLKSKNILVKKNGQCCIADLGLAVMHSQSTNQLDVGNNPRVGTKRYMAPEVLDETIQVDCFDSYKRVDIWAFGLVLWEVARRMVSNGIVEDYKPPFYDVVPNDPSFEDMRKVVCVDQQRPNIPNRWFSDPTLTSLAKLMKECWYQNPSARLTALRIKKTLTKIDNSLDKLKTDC

[12] = target: Insulin-like growth factor 1 receptor (Homo sapiens, UniProt P08069); assay: Navigating the Kinome. Panel member name: IGF1R
[13] = target: Inhibitor of nuclear factor kappa-B kinase subunit epsilon (Homo sapiens, UniProt Q14164); assay: Navigating the Kinome. Panel member name: IKBKE
Sequence of Inhibitor of nuclear factor kappa-B kinase subunit epsilon (Q14164 whole entry): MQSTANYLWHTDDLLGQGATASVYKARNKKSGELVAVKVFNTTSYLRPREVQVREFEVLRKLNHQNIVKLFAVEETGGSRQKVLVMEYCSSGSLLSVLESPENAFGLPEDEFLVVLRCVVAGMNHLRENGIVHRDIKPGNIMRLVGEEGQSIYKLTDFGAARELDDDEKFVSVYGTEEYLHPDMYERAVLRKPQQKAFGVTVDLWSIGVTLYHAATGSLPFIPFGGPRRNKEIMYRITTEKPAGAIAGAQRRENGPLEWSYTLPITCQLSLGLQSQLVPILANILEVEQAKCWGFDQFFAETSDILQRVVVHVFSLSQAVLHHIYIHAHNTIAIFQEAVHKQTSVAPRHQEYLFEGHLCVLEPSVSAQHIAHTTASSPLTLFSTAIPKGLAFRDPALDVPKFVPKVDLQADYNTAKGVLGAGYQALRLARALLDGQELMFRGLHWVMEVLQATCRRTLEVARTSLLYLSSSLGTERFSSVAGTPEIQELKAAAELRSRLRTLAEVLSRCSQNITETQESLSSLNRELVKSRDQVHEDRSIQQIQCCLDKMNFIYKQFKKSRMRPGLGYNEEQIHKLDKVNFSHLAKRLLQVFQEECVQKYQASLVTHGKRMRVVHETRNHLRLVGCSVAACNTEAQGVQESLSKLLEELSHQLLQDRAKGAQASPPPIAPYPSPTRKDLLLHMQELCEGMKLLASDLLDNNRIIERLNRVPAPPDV

[14] = target: Tyrosine-protein kinase JAK2 (Homo sapiens, UniProt O60674);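 further: JAK2 tested as one member of a kinase panel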
[15] = target: Mitogen-activated protein kinase kinase kinase kinase 4 (Homo sapiens, UniProt O95819)
[16] = target: Serine/threonine-protein kinase TBK1 (Homo sapiens, UniProt Q9UHD2); assay: Navigating the Kinome. Panel member name: TBK1
Sequence of Serine/threonine-protein kinase TBK1 (Q9UHD2 whole entry): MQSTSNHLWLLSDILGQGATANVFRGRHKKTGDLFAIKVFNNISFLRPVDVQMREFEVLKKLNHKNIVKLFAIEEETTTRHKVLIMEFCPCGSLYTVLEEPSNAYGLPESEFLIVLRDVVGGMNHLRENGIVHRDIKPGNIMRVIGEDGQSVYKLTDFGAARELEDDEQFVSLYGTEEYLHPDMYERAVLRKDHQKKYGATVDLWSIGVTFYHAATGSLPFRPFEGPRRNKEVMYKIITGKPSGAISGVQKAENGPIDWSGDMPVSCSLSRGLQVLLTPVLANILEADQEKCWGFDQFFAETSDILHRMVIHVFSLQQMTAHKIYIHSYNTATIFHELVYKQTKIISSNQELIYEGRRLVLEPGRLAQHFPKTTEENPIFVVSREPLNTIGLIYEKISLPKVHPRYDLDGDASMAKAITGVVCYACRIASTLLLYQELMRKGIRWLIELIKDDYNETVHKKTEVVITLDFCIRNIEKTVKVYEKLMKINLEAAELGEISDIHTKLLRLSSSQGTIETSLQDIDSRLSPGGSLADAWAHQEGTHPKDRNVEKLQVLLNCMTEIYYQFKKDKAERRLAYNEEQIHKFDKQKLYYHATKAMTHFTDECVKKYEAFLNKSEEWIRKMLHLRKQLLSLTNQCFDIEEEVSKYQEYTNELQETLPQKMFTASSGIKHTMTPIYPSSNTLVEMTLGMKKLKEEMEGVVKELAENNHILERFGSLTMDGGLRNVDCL

[17] = target: Fibroblast growth factor receptor 1 (Homo sapiens, UniProt P11362)
[18] = target: Serine/threonine-protein kinase PAK 4 (Homo sapiens, UniProt O96013);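 further: value obtained within a kinome profiling panel in which PAK4 was one of the panel members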
Sequence of Serine/threonine-protein kinase PAK 4 (O96013 whole entry): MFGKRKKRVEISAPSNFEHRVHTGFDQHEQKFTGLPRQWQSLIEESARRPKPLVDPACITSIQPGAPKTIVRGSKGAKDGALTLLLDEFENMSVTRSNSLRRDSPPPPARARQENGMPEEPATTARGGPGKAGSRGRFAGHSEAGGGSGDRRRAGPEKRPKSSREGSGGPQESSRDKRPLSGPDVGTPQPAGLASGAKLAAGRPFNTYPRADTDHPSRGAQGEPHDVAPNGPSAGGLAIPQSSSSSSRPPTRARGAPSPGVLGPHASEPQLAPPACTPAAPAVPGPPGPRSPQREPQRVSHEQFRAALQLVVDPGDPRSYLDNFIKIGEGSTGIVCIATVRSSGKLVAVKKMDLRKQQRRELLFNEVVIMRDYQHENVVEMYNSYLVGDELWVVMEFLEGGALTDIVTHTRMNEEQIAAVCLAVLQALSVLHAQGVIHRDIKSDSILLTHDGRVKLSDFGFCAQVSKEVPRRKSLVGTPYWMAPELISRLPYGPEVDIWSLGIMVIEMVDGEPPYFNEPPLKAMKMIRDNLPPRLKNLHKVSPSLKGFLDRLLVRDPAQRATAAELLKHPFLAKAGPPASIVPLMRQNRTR

[19] = target: Platelet-derived growth factor receptor alpha (Homo sapiens, UniProt P16234); assay: Navigating the Kinome. Panel member name: PDGFRA
Sequence of Platelet-derived growth factor receptor alpha (P16234 whole entry): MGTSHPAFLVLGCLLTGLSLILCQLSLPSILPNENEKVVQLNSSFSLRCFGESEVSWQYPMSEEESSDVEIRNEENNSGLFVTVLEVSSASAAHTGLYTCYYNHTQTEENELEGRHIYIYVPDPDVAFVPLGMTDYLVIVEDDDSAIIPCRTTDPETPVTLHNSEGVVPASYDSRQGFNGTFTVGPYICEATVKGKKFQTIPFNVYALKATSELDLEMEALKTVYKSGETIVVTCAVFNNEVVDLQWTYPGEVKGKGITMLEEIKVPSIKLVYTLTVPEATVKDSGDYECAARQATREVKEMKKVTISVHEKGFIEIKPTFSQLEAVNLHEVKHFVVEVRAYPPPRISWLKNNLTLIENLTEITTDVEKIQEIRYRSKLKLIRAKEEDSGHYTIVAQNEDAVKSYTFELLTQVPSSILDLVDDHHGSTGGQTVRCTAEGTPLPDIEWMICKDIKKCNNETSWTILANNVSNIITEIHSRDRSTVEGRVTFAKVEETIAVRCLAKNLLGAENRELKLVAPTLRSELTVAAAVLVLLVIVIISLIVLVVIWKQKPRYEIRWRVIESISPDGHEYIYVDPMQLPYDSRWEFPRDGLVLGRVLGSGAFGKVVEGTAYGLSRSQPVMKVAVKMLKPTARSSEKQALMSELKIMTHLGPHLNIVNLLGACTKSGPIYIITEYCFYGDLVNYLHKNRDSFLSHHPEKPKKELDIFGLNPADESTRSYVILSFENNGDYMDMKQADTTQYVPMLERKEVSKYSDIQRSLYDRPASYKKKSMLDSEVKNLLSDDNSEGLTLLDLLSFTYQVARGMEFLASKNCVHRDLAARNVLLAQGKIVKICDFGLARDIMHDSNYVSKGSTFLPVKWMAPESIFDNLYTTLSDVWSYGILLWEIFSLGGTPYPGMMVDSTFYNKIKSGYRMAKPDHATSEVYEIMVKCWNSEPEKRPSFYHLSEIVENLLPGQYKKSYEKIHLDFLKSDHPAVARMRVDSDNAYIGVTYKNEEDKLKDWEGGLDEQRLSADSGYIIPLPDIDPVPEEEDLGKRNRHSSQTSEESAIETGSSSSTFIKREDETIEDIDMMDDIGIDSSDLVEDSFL

[20] = target: Cyclin-dependent kinase 9 (Homo sapiens, UniProt P50750);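 further: value from the CDK9 entry of a kinome-spanning kinase panel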
Sequence of Cyclin-dependent kinase 9 (P50750 whole entry): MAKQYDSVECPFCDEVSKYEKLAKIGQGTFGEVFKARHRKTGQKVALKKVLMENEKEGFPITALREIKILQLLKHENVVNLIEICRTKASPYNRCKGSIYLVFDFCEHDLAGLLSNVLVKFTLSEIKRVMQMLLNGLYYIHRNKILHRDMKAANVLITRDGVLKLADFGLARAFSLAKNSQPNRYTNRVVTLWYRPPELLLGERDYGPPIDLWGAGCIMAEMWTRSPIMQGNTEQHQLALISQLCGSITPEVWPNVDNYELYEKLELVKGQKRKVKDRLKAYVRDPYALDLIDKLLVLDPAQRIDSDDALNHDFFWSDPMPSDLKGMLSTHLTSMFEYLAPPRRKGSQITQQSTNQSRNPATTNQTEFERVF

[21] = target: T2, Sentrin-specific protease 7 (Homo sapiens, UniProt Q9BQF6);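 further: Luminescence-based dose-response confirmation of ultra-high-throughput screening hits, measuring inhibition of SENP7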
T2 sequence (Q9BQF6 whole entry): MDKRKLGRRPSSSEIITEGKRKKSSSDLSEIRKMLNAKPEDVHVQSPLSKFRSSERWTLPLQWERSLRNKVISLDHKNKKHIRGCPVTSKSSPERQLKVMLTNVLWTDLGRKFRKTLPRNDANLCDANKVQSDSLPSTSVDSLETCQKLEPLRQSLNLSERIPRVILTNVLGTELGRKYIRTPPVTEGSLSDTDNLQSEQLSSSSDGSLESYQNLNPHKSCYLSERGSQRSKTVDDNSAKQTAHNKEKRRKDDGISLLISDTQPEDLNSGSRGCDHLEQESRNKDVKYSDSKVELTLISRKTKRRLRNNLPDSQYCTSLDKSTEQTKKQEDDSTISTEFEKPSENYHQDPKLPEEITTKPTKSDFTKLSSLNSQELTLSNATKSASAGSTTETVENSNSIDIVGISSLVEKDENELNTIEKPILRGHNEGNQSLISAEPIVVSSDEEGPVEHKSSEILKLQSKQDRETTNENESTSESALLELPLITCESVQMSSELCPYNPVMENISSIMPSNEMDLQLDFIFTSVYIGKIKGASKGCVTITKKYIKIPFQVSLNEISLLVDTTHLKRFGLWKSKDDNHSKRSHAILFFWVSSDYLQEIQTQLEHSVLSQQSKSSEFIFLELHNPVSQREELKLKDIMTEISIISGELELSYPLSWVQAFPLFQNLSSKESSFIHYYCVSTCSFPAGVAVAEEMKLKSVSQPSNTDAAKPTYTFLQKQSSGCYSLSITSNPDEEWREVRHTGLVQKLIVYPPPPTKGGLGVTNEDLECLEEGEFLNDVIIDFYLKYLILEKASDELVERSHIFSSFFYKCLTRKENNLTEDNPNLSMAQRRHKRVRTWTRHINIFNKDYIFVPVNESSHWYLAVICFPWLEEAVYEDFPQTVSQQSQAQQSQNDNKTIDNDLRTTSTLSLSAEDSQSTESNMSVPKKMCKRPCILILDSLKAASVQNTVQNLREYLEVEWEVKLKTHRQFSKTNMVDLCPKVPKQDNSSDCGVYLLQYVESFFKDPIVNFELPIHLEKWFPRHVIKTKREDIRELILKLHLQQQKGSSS

[22] = target: T3, Caspase-3 (Homo sapiens, UniProt P42574);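 further: Dose-response selectivity test against caspase-3 for candidate inhibitors of sentrin-specific proteases (SENPs)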
T3 sequence (P42574 whole entry): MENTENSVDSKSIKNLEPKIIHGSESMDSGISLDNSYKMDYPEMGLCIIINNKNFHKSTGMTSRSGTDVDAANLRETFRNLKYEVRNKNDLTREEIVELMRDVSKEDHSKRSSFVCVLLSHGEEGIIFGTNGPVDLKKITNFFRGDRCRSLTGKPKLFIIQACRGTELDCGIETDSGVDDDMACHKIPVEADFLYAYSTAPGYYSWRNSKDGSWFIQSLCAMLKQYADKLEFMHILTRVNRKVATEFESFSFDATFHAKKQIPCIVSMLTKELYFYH

Sequence of Cyclin-dependent kinase 7 (P50613 whole entry): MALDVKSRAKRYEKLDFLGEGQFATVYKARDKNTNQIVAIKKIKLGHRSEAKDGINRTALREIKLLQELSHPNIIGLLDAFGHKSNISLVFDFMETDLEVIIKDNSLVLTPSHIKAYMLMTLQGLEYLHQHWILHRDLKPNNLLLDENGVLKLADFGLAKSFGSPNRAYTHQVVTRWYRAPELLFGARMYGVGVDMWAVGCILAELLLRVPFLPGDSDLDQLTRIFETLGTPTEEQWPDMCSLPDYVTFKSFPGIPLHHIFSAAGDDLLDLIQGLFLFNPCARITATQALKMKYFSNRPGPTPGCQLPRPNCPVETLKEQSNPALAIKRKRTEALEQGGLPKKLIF

Row | Structure (SMILES) | Ki [1] | Ki [2] | Ki [3] | Ki [4] | Ki [5] | Ki [6] | Ki [7] | Ki [8] | Ki [9] | Ki [10] | Ki [11] | Ki [12] | Ki [13] | Ki [14] | Ki [15] | Ki [16] | Ki [17] | Ki [18] | Ki [19] | Ki [20] | also measured
1 | COc1ccc(C2=NNc3cccc4c(OC)ccc2c34)cc1OC | > 6310 nM (inactive) | > 3980 nM (inactive) | 2000 nM (active) | 1580 nM (active) | 251 nM (active) | > 2510 nM (inactive) | > 1260 nM (inactive) | 12.6 nM (active) | > 3980 nM (inactive) | > 1580 nM (inactive) | 631 nM (active) | > 2510 nM (inactive) | 501 nM (active) | 1000 nM (active) | 398 nM (active) | 631 nM (active) | > 3980 nM (inactive) | 2000 nM (active) | 200 nM (active) | 200 nM (active) | –
2 | Cc1ccc(C)c(NC(=O)c2cc(-c3ccco3)nc3ccccc23)c1 | > 6310 nM (inactive) | 3980 nM (active) | – | – | 1000 nM (active) | – | – | – | 1580 nM (active) | 1000 nM (active) | 3160 nM (active) | – | 3160 nM (active) | – | > 5010 nM (inactive) | > 3160 nM (inactive) | 1580 nM (active) | 3980 nM (active) | 2000 nM (active) | 398 nM (active) | –
3 | CC(/C=C1\SC(=S)N(NS(=O)(=O)c2ccc(C)cc2)C1=O)=C\c1ccccc1 | – | – | – | – | – | – | – | – | – | – | – | – | – | – | – | – | – | – | – | – | IC50 [21]: 43900 nM (active); IC50 [22]: 12900 nM (active)
4 | CN1CCC(c2c(O)cc(O)c3c(=O)cc(-c4ccccc4Cl)oc23)C(O)C1 (stereo unspecified) | – | – | 1000 nM (active) | 79.4 nM (active) | – | > 2510 nM (inactive) | > 3980 nM (inactive) | > 5010 nM (inactive) | – | > 1580 nM (inactive) | – | > 2000 nM (inactive) | – | > 2000 nM (inactive) | – | – | – | – | > 2510 nM (inactive) | – | –
5 | Cc1ccc(NC2=C(NCCO)C(=O)c3ccccc3C2=O)cc1 | – | – | – | – | – | – | – | – | – | – | – | – | – | – | – | – | – | – | – | – | IC50 [21]: 11600 nM (active); IC50 [22]: 11400 nM (active)
